In the data set the test system is S. typhimurium TA100. The data set is described as follows: Colormetric Ames Test Procedure. Type of data set: cell-based. As to conditions: at the concentration given per compound (1.39-360.1 μM), 5 days at 37° C. The method, then: The following procedures were performed aseptically. First, the day before the assay, as late as possible in the day, the vial labeled “G” Nutrient Broth was dispensed into the vial labeled S. typhimurium TA100 (lyophilized). The mixture was incubated over night at 37° C. for about 16-18 hours.
In appropriate vial, about 50 mg of the test compound was weighed out. About 1 mL of DMSO was added, and the mixture was filter sterilized with 25 mm syringe filter into a sterile tube. The concentration of DMSO was noted.
In a sterile 50 mL tube, about 15 mL of sterile Davis Mingioli Salt (see Davis & Mingioli, Aromatic biosynthesis, VII. Accumulation of two derivatives of shikimic acid by bacterial mutants, J. Bacteriol. 1953. August; 66(2): 129-36) was pipetted. This salt solution (Muta Component “A”) was comprised of (1) Milli-Q, 600 mL; (2) dipotassium phosphate, anhyd., 38.5 g; (3) monopotassium phosphate, anhyd. 11.0 g; (4) ammonium sulfate, 5.5 g; (5) trisodium citrate, 1.375 g; and (6) magnesium sulfate, 0.55 g. Appropriate volume of Milli-Q water was added to bring total volume to 1 L. Each component was dissolved one at a time in the above order. The solution was filtered through a 0.22 μm filter to remove sediment at a pH of about 7.3.
To the salt solution, small amounts of DMSO diluted compound was added, not to exceed 500 μl of DMSO. For example, about 100 μl aliquots of the DMSO diluted compound was added until the highest concentration is reached with compound still in solution. […] When the highest concentration of compound was determined, an appropriate volume of sterile Davis Mingioli salts was added to bring the total volume of solution to 17.5 mL. The concentration of compound and DMSO in the test solution was then noted.
The components were then mixed in a 50 mL sterile tube labeled Reaction Mixture as follows: 21.62 mL of A+4.75 ml of B (D-glucose, 40% w/v)+2.38 mL of C (bromocresol purple, 5 mg/ml)+1.19 ml of D (D-biotin, 0.1 mg/ml)+0.060 ml (60 μl) of E (L-histidine, 0.1 mg/ml). The vial was vortexed and then set aside.
The S9 Mixture was prepared by reconstituting the S9 enzymes with 2.1 mL of sterile water. This was labeled “S9F.” In a 50 mL tube labeled S9 Mixture, the following were mixed together (all available from EBIP): 0.4 mL of S9A (MgCl2, 0.4 M and KCl, 1.65 M)+0.09 mL of S9B (glucose-6-phosphate, 1.0 M)+0.81 mL of S9C (nicotine amide di-nucleotide phosphate, 0.1 M)+9.98 mL of S9D (phosphate buffer, pH 7.4)+6.72 mL of S9E (sterile distilled water)+2 mL of S9F (Rate liver extract). The vial was vortexed and then set aside.
Sterile tubes were labeled as follows: Blank, Background I, Background II, Standard Mutagen, Compound 1 (−), Compound 1 (S9+), Compound 2 (−), Compound 2 (S9+), Compound 3 (−), Compound 3 (S9+). Next, about 2.5 mL of the reaction mix was added to each tube. Then, about 2 mL of the S9 mix was added to the Background II and the S9+ compounds. Next, to each of the compound vials, about 8 mL of the prepared compounds was added. The concentration of the compound in the final solution was noted. Then, about 100 μl of the standard mutagen was added to the Standard mutagen vial. (NaN3 for non S9 activation and 2-aminoanthracene with S9 activation). The appropriate volume of sterile water was next added for a final volume of 17.5 mL. Then, about 5 μl of bacteria was added to each tube except the Blank. Each vial was vortexed and poured into a sterile multi-channel pipette boat, and pipette 200 μl per well into the 96 well plate with a multi channel pipetter. The plates were labeled, covered, placed in zip lock bag, and then incubated for 5 days at 37° C.
On day five of the incubation, the plates were removed from the incubator and placed in a laminar flow hood. The Blank was analyzed first. If there were any wells that were yellow, the test was considered contaminated and the results invalid. […]

`COC(=O)c1nn(Cc2ccc(Cl)cc2Cl)c2cccc(C)c12` [JWS-2-92, 1-(2,4-dichlorobenzyl)-4-methyl-1H-indazole-3-carboxylic acid methyl ester]: the “Colormetric Ames test, with S9” value is reported as “Pass*” and the “Colormetric Ames test, without S9” value was “Pass*”.

On to `COC(=O)c1nn(Cc2ccc(Cl)cc2Cl)c2cc(OC(F)(F)F)ccc12` [JWS-2-100, 1-(2,4-dichlorobenzyl)-6-trifluoromethoxy-1H-indazole-3-carboxylic acid methyl ester], for which the “Colormetric Ames test, with S9” value is reported as “Pass*” and the “Colormetric Ames test, without S9” value was “Pass*”.

For the molecule `O=C(O)c1nn(Cc2ccc(Cl)cc2Cl)c2cc(OC(F)(F)F)ccc12` [JWS-2-102, 1-(2,4-dichlorobenzyl)-6-trifluoromethoxy-1H-indazole-3-carboxylic acid], the “Colormetric Ames test, with S9” value is listed as “Pass*” and the “Colormetric Ames test, without S9” value was “Pass*”.

As to `NNC(=O)c1nn(Cc2ccc(Cl)cc2Cl)c2cc(OC(F)(F)F)ccc12` [JWS-2-104, 1-(2,4-dichlorobenzyl)-6-trifluoromethoxy-1H-indazole-3-carboxylic acid hydrazide], the “Colormetric Ames test, with S9” value is “Pass*” and the “Colormetric Ames test, without S9” value is reported as “Pass*”.

For `COC(=O)/C=C/c1nn(Cc2ccc(Cl)cc2Cl)c2cc(OC(F)(F)F)ccc12` [JWS-2-110, 3-[1-(2,4-dichlorobenzyl)-6-trifluoromethoxy-1H-indazol-3-yl]acrylic acid methyl ester], the “Colormetric Ames test, with S9” value is “Pass*” and the “Colormetric Ames test, without S9” value is listed as “Pass*”.

With `O=C(O)/C=C/c1nn(Cc2ccc(Cl)cc2Cl)c2cc(OC(F)(F)F)ccc12` [JWS-2-112, 3-[1-(2,4-dichlorobenzyl)-6-trifluoromethoxy-1H-indazol-3-yl]acrylic acid], the “Colormetric Ames test, with S9” value is given as “Pass*” and the “Colormetric Ames test, without S9” value was “Pass*”.

Consider `COC(=O)c1nn(Cc2ccc(Cl)cc2Cl)c2cc(OC)ccc12` [JWS-2-120, 1-(2,4-dichlorobenzyl)-6-methoxy-1H-indazole-3-carboxylic acid methyl ester], for which the “Colormetric Ames test, with S9” value was “Pass*” and the “Colormetric Ames test, without S9” value is reported as “Pass*”.

As to `COc1ccc2c(C(=O)O)nn(Cc3ccc(Cl)cc3Cl)c2c1` [JWS-2-122, 1-(2,4-dichlorobenzyl)-6-methoxy-1H-indazole-3-carboxylic acid], the “Colormetric Ames test, with S9” value is reported as “Pass*” and the “Colormetric Ames test, without S9” value is given as “Pass*”.

On to `COc1ccc2c(/C=C/C(=O)O)nn(Cc3ccc(Cl)cc3Cl)c2c1` [JWS-2-132, 3-[1-(2,4-dichlorobenzyl)-6-methoxy-1H-indazol-3-yl]acrylic acid], for which the “Colormetric Ames test, with S9” value is on record as “Pass*” and the “Colormetric Ames test, without S9” value was “Pass*”.
